Measurements from publication PMC12040169 (PLOS Biology, 2025).

Assay: in vitro
Settings: human, hela cells, % viability

Structure (SMILES)	viability at 28.5 h, 10 µM [%]
O=C(C1CCCC1)N1CCC(n2c(=O)oc3ccccc32)CC1 [CBK284349]	83.7
Cc1ncccc1C(=O)N1CCC2(CCc3ccccc3C(=O)N2)C1 (stereo not drawn) [CBK283338]	108
CS(=O)(=O)c1ccc(-c2cnc3nc(N)ccc3c2)cc1 [CBK061916]	92.9
CCOCC1CCCN1C(=O)Nc1ccc2sc(C(=O)N(C)C)cc2c1 (stereo not drawn) [CBK306601]	98.3
COc1ccccc1NC(=O)C(=O)NCCc1c[nH]c2ccccc12 [CBK266672]	108
Cc1ccc(N2C(=O)CSC2c2ccc(Cl)cc2Cl)cc1 (stereo not drawn) [CBK025673]	105
CCN(c1ccccc1)S(=O)(=O)c1ccc(C(=O)NC(C)c2ccc3c(c2)OCCO3)cc1 (stereo not drawn) [CBK296945]	83.5
COc1cc(S(=O)(=O)Nc2ccc(CC(=O)O)cc2)ccc1Cl [CBK287019]	107
Fc1ccc(NC(=S)NCC2CC2)c(F)c1 [CBK011398]	100
CN(C)CC(=O)N1CCc2nc(-c3cccc(F)c3)sc2C1 [CBK281801]	106
CC(=O)c1ccc(NC(=O)Nc2nnc(CCN3CCCC3)s2)cc1 [CBK174990]	92.6
CC(=O)N1CCN(c2ccccc2NC(=O)Cc2ccccc2C(=O)O)CC1 [CBK286802]	87.6
CCN(CC)c1c(C)nc2ccc(C(=O)NCCc3ccccn3)cn12 [CBK145951]	94.9
CN(C)CCN(Cc1ccccc1)C(=O)NCc1cccnc1 [CBK145048]	89.6
Cc1cc(-c2nnc(NCc3ccnn3C)o2)c(C)o1 [CBK306446]	84.6
CCn1cc(C(=O)O)c(=O)c2cc(F)c(N3CCN(C(=S)Nc4cccc5ccccc45)CC3)cc21 [CBK265809]	97.4
CC(=O)N1CCC[C@H]2NC(=O)CNC(=O)C3(C/C=C/C[C@H]21)CCN(CC(N)=O)CC3 [CBK292135]	84.4
CN(C)c1ccc(-c2nc(N(C)C)n(C)n2)cn1 [CBK306858]	90.1
O=c1[nH]c2ccccc2n1C1CCN(S(=O)(=O)c2cccs2)CC1 [CBK149689]	98.4
C=CCN1C(=O)C2(CC(=O)N(CC)C2=O)c2cc(F)ccc21 (stereo not drawn) [CBK075318]	100
Nc1nc(CN2C(=O)c3ccccc3C2=O)n[nH]1 [CBK266655]	105
COc1ccc(-c2ccc3c(c2)C(=O)N2CC[C@H](N)C[C@H]2C(=O)N3)c(OC)c1 [CBK289560]	104
Cc1ccccc1NC(=O)c1cnc2n(c1=O)CCS2 [CBK287374]	110

Structure (SMILES)	viability at 28.5 h, 10 µM [%]
CC1(C)COC(=O)N1C1CCN(C(=O)CCS/C=C\c2ccccc2)CC1 [CBK045134]	95.3
COCc1cn(C2CC(O)C(CO)O2)c(=O)[nH]c1=O (stereo not drawn) [CBK201230]	99.8
CCCCC(c1cccnc1)N(C)C(=O)Cn1ccccc1=O (stereo not drawn) [CBK306936]	104
CCc1nn(CC(=O)NC2CCCC2)c(=O)c2cc3sccc3n12 [CBK284077]	84
COC(=O)C(=O)N1CC[C@H]2NC(=O)N(Cc3ccccc3)C(=O)[C@H]21 [CBK289292]	98.6
O=C(Nc1ccccc1)N[C@H]1CO[C@H]2[C@@H]1OC[C@H]2OC(=O)Nc1ccccc1 [CBK289465]	89.1
COC(=O)c1ccccc1NC(=O)N1CCN(S(=O)(=O)c2ccc(Cl)cc2)CC1 [CBK266860]	88
O=[N+]([O-])c1ccc(-c2ccc(/C=C/c3cc(O)c4ccccc4n3)o2)cc1 [CBK267792]	92.1
O=C(CCN1CCCCC1)Nc1ccc2c(=O)n3c(nc2c1)/C(=C/c1ccccc1)CC3 [CBK017786]	94.1
Cc1ccc(/C(N)=N/OC(=O)COc2cccc3ccccc23)cc1 [CBK263009]	98.5
Oc1ccccc1CNC1(Cc2cc(-c3ccc(F)cc3)on2)COC1 [CBK289655]	95.8
CCn1cc(C(=O)O)c(=O)c2cnc(N3CCN(C(=S)Nc4ccc5c(c4)OCCO5)CC3)nc21 [CBK267895]	95.8
O=C(NC1CCN(c2ncccn2)CC1)c1cccnc1O [CBK297739]	99.7
C#CCN1C(=O)C2(OCCO2)c2cccc(C)c21 [CBK019069]	95.1
c1csc(CNc2cncc(-c3ccncc3)n2)c1 [CBK065238]	97.3
CCC1CNCCN1c1nccnc1OCCOc1cccnc1 (stereo not drawn) [CBK001559F]	121
N#C/C(=C\c1ccc(-c2ccc(C(=O)O)c(O)c2)o1)c1nc2ccccc2[nH]1 [CBK262121]	91.7
Cc1sc(NC(=O)COc2ccccc2)c(C(N)=O)c1-c1ccccc1 [CBK268164]	97.8
CCN(CC)CCCCSc1ccc(O)cc1 [CBK261785C]	95.7
CSc1ccc(-c2cn3ccnc3c(Nc3ccccc3)n2)cc1 [CBK066537]	91.3
O=C(O)CCc1cccnc1 [CBK175283]	92.2
CC(C)(C)c1ccc(C(=O)CSCC(=O)Nc2ccc3ccccc3c2)cc1 [CBK268394]	85.2
